Experiment [1] deals with Mus musculus. In words: Antidepressant like activity in Mus musculus Kunming (mouse) assessed as reduction of immobility time at 40 mg/kg, po measured during last 4 min of 6 min test by tail suspension test (reference value: 105.7 +/- 10.03 sec). The experiment is classed as functional.
The subject of experiment [2] is Mus musculus. Put plainly: Antidepressant like activity in Mus musculus Kunming (mouse) assessed as reduction of immobility time at 40 mg/kg, po measured during last 4 min of 6 min test by forced swimming test (reference value: 183.3 +/- 12.67 sec). The experiment is classed as functional.

As for `O=C(/C=C/c1cccc(O)c1)NCCO`, the figures for the Time in experiment [1] and in experiment [2] were 54 s and 102.8 s, respectively.

Regarding `O=C(/C=C/c1ccc(O)cc1)NCCO`, the figures for the Time in experiment [1] and in experiment [2] were 71 s and 133.3 s, respectively.

Regarding `COc1ccccc1/C=C/C(=O)NCCO`, the figures for the Time in experiment [1] and in experiment [2] were 38.67 s and 159.1 s, respectively.

Take `COc1cccc(/C=C/C(=O)NCCO)c1`: the Time in experiment [1] is reported as 43.33 s; in experiment [2], 141 s.

Take `COc1ccc(/C=C/C(=O)NCCO)c(OC)c1`: the Time in experiment [1] turned out to be 39.67 s; in experiment [2], 143.5 s.

On to `COc1ccc(/C=C/C(=O)NCCO)cc1OC`, for which the Time in experiment [1] is 39.33 s; in experiment [2], 157.8 s.

Regarding `COc1cc(/C=C/C(=O)NCCO)cc(OC)c1OC`, the values for the Time in experiment [1] and in experiment [2] were 76.33 s and 165.5 s, respectively.

For the compound `COc1cc(/C=C/C(=O)NCCO)ccc1O`, the Time in experiment [1] was found to be 45 s; in experiment [2], 55 s.

As for `O=C(/C=C/c1ccccc1O)NCCO`, the Time in experiment [1] worked out at 44.83 s; in experiment [2], 146.7 s.

On to `CN(C)c1ccc(/C=C/C(=O)NCCO)cc1`, for which the Time was found to be 64.67 s in experiment [1] and 105.5 s in experiment [2].

As to `COc1ccc(/C=C/C(=O)NCCO)cc1`, the results for the Time in experiment [1] and in experiment [2] were 31.33 s and 167.5 s, respectively.

Turning to `O=C(/C=C/c1ccc(Cl)cc1)NCCO`, the values for the Time in experiment [1] and in experiment [2] were 76.67 s and 168 s, respectively.

Consider `O=C(/C=C/c1ccc(F)cc1)NCCO`, for which the results for the Time in experiment [1] and in experiment [2] were 75 s and 130.8 s, respectively.

As to `O=C(/C=C/c1ccc(Br)cc1)NCCO`, the Time in experiment [1] is given as 57 s; in experiment [2], 119.7 s.

`CNCCC(Oc1ccc(C(F)(F)F)cc1)c1ccccc1` (stereo unspecified) [FLUOXETINE]: the Time in experiment [1] stood at 14.17 s.

Take `O=C(/C=C/c1ccccc1)NCCO` [IDROCILAMIDE]: the Time in experiment [1] was determined as 25 s; in experiment [2], 101.2 s.

These data come from ChEMBL document CHEMBL3044559, “Synthesis and antidepressant-like action of N-(2-hydroxyethyl) cinnamamide derivatives in mice” (2011).
